One may read the inhibition as the relative decrease from the control value, in per cent. A lower inhibition goes with a weak effect.

The record followed here is patent US20090170838A1, “Bicycloheteroaryl compounds as P2X7 modulators and uses thereof” (Renovis, Inc., priority 2005, published 2009).

A value given as a limit tells only on which side of the number the result lay.

The target of this test is T1, P2X7 receptor (Homo sapiens, UniProt Q99572).
T1 construct: host or cells: THP-1 cells differentiated with LPS and IFN-γ
T1 sequence (Q99572 1-595): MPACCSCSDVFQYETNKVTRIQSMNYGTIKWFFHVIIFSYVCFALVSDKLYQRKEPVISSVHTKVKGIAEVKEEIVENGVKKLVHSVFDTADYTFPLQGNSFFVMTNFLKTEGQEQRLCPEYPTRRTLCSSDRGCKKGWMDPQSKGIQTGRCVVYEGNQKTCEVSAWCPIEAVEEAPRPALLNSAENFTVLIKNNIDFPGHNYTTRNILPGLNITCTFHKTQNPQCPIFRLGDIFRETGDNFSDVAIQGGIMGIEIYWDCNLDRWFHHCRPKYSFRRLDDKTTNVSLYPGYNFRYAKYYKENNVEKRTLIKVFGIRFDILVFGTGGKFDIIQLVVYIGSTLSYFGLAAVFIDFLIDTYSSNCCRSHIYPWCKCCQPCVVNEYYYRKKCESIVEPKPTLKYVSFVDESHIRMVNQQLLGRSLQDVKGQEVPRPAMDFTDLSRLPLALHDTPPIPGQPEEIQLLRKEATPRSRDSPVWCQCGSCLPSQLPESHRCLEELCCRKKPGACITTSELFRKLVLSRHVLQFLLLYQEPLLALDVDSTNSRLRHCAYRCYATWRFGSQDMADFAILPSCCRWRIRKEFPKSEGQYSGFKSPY
The test can be described thus: IL-1β release assay (BzATP-stimulated, LPS/IFN-γ differentiated THP-1 cells, ELISA). Format: cell-based. The note with it: at 0.1 μM (asterisk symbols). As for the experimental part: THP-1 cells (ATCC Cat # 285-IF-100) are plated in 96 well plates at a concentration of 200,000 cells per well and allowed to differentiate in RPMI-1640 media (ATCC Cat # 30-2001) containing 10% FBS, 100 IU/mL penicillin, 100 ug/mL streptomycin, 100 ng/mL LPS and 100 ng/mL IFN-γ for 16 hours. Following differentiation, the cells are treated for an additional 2 hours in RPMI-1640 media containing 100 IU/mL penicillin, 100 ug/mL streptomycin and fresh LPS at 100 ng/mL. The cells are then pretreated for 30 minutes with the compound of interest at the appropriate concentration in RPMI media containing 100 IU/mL penicillin, 100 ug/mL streptomycin. Following the pretreatment 2′,3′-O-(4-benzoylbenzoyl)-adenosine 5′-triphosphate (Sigma Aldrich Cat# B6396) is added to a final concentration of 250 uM and the cells incubated for an additional 45 minutes. 30 uL of cell supernatant is then collected and […] levels determined via ELISA (R&D systems Cat. # HSLB50) according to manufacturer's recommendations using the Tecan Safire plate reader. Background adjusted IL-1β levels of drug treated and non-treated cells are used to calculate the percent inhibition.
A general note: In an ELISA, binding on a coated surface is turned into a signal by an enzyme label.
As for `O=C(CC12CC3CC(CC(C3)C1)C2)Nc1cccc2c(=O)n(C[C@@H]3CCCN3)ccc12` [Compound 810], the inhibition at 0.1 µM is ≥ 75%.
`O=C(CC12CC3CC(CC(C3)C1)C2)Nc1cccc2c(=O)n(C[C@H]3CCCN3)ccc12` [Compound 811]: the inhibition at 0.1 µM is ≥ 75%.
With `CC12CC3CC(C)(C1)CC(CC(=O)Nc1cccc4c1CCN(CC1CCOCC1)C4=O)(C3)C2` [Compound 813] the figure was ≥ 75%.
With `CC12CC3CC(C)(C1)CC(CC(=O)Nc1cccc4c1CCN(Cc1ccc5c(c1)OCO5)C4=O)(C3)C2` [Compound 814] the figure was ≥ 75%; with `CC12CC3CC(C)(C1)CC(CC(=O)Nc1cccc4c1CCN(CCN1CCOCC1)C4=O)(C3)C2` [Compound 815], 50 to 75%; with `O=C(Nc1cccc2c(=O)n(Cc3ccccc3)ccc12)C12CC3CC(CC(F)(C3)C1)C2` [Compound 816, 3-Fluoro-Adamantan-1-yl-N-(2-benzyl-1-oxo-1,2-dihydro-isoquinolin-5-yl)-formamide], 25 to 50%.
As to `O=C(CC12CC3CC(CC(C3)C1)C2)Nc1cccc2c1CCN(CCN1CCOCC1)C2=O` [Compound 817], the inhibition at 0.1 µM is ≥ 75%.
Molecule `C[C@@H](c1ccccc1)n1ccc2c(NC(=O)CC34CC5CC(C)(CC(C)(C5)C3)C4)cccc2c1=O` [Compound 818] displayed an inhibition at 0.1 µM of 50 to 75%.
With `CC12CC3CC(C)(C1)CC(CC(=O)Nc1cccc4c(=O)n(Cc5ccc(F)c(F)c5)ccc14)(C3)C2` [Compound 819] the figure was 50 to 75%; with `CC12CC3CC(C)(C1)CC(CC(=O)Nc1cccc4c(=O)n(CC5CCOCC5)ccc14)(C3)C2` [Compound 820], ≥ 75%.
With `CC12CC3CC(C)(C1)CC(CC(=O)Nc1cccc4c(=O)n(Cc5ccc6c(c5)OCO6)ccc14)(C3)C2` [Compound 821] the figure was ≥ 75%.
To `CC12CC3CC(C)(C1)CC(CC(=O)Nc1cccc4c1CCN(CCCN1CCOCC1)C4=O)(C3)C2` [Compound 822] belongs ≥ 75%; to `CC12CC3CC(C)(C1)CC(CC(=O)Nc1cccc4c1CCN(Cc1ccc5c(c1)OCCO5)C4=O)(C3)C2` [Compound 823], ≥ 75%; to `O=C(CC12CC3CC(CC(C3)C1)C2)Nc1cccc2c(=O)n(CCCn3ccnc3)ccc12` [Compound 824], 50 to 75%.
For `Cc1cccnc1CN1CCc2c(NC(=O)CC34CC5CC(CC(C5)C3)C4)cccc2C1=O` [Compound 825], the inhibition at 0.1 µM is ≥ 75%.
To `O=C(CC12CC3CC(CC(C3)C1)C2)Nc1cccc2c(=O)n(C(CO)CO)ccc12` [Compound 826] belongs ≥ 75%; to `O=C(CC12CC3CC(CC(C3)C1)C2)Nc1cccc2c1CCN(C(CO)CO)C2=O` [Compound 827], ≥ 75%.
With `NC(=O)CN1CCc2c(NC(=O)CC34CC5CC(CC(C5)C3)C4)cccc2C1=O` [Compound 828] the figure was ≥ 75%.
Take `NC(=O)CCn1ccc2c(NC(=O)CC34CC5CC(CC(C5)C3)C4)cccc2c1=O` [Compound 829]: the inhibition at 0.1 µM was ≥ 75%.
To `O=C(CC12CC3CC(CC(C3)C1)C2)Nc1cccc2c1CCN(CC1CCOCC1)C2=O` [Compound 833] belongs ≥ 75%.
With `CCN1CCCC1CN1CCc2c(NC(=O)CC34CC5CC(CC(C5)C3)C4)cccc2C1=O` (centres unmarked) [Compound 834] the figure was ≥ 75%; with `CC12CC3CC(C)(C1)CC(CC(=O)Nc1cccc4c(=O)n(Cc5c(F)cccc5F)ccc14)(C3)C2` [Compound 835], ≥ 75%.
With `O=C(CC12CC3CC(CC(C3)C1)C2)Nc1cccc2c1CCN(CCCn1ccnc1)C2=O` [Compound 836] the figure was ≥ 75%; with `CC(c1cccnc1)n1ccc2c(NC(=O)CC34CC5CC(CC(C5)C3)C4)cccc2c1=O` (centres unmarked) [Compound 837], ≥ 75%.
In the case of `CC(c1ccccc1)N1CCc2c(NC(=O)CC34CC5CC(C)(CC(C)(C5)C3)C4)cccc2C1=O` (centres unmarked) [Compound 838], the inhibition at 0.1 µM was ≥ 75%.
To `CC12CC3CC(C)(C1)CC(CC(=O)Nc1cccc4c1CCN(Cc1ccccc1F)C4=O)(C3)C2` [Compound 839] belongs 50 to 75%; to `CC12CC3CC(C)(C1)CC(CC(=O)Nc1cccc4c1CCN(Cc1c(F)cccc1F)C4=O)(C3)C2` [Compound 840], ≥ 75%; to `CC12CC3CC(C)(C1)CC(CC(=O)Nc1cccc4c(=O)[nH]ccc14)(C3)C2` [Compound 841], ≥ 75%.
In the case of `CN1CCN(CCN2CCc3c(NC(=O)CC45CC6CC(CC(C6)C4)C5)cccc3C2=O)CC1` [Compound 842], the inhibition at 0.1 µM is ≥ 75%.
As for `CC(C)(CN1CCOCC1)N1CCc2c(NC(=O)CC34CC5CC(CC(C5)C3)C4)cccc2C1=O` [Compound 843], the inhibition at 0.1 µM is ≥ 75%.
With `O=C(CC12CC3CC(CC(C3)C1)C2)Nc1cccc2c(=O)n(CCO)ccc12` [Compound 845] the figure was ≥ 75%.
To `CC(C)(C)OC(=O)N1CCCC1CN1CCc2c(NC(=O)CC34CC5CC(CC(C5)C3)C4)cccc2C1=O` (centres unmarked) [Compound 857] belongs ≥ 75%; to `CC(c1ccccn1)n1ccc2c(NC(=O)CC34CC5CC(CC(C5)C3)C4)cccc2c1=O` (centres unmarked) [Compound 858], ≥ 75%.
To `CC(c1ccncc1)n1ccc2c(NC(=O)CC34CC5CC(CC(C5)C3)C4)cccc2c1=O` (centres unmarked) [Compound 859] belongs ≥ 75%; to `CC1CN(CCn2ccc3c(NC(=O)CC45CC6CC(CC(C6)C4)C5)cccc3c2=O)CC(C)O1` (centres unmarked) [Compound 869], 50 to 75%.
Consider `CCN(CC)CCn1ccc2c(NC(=O)CC34CC5CC(CC(C5)C3)C4)cccc2c1=O` [Compound 870], for which the inhibition at 0.1 µM was ≥ 75%.
As for `CC(C)Cn1ccc2c(NC(=O)CC34CC5CC(CC(C5)C3)C4)cccc2c1=O` [Compound 871], the inhibition at 0.1 µM is ≥ 75%.
With `O=C(CC12CC3CC(CC(C3)C1)C2)Nc1cccc2c1CCN(CC1COc3ccccc3O1)C2=O` (centres unmarked) [Compound 872] the figure was ≥ 75%; with `O=C(CC12CC3CC(CC(C3)C1)C2)Nc1cccc2c(=O)n(Cc3ccoc3)ccc12` [Compound 873], ≥ 75%; with `O=C(CC12CC3CC(CC(C3)C1)C2)Nc1cccc2c1CCNC2=O` [Compound 874], ≥ 75%.
In the case of `O=C(CC12CC3CC(CC(C3)C1)C2)Nc1cccc2c1CCN(CC1CCNCC1)C2=O` [Compound 875], the inhibition at 0.1 µM is ≥ 75%.
To `O=C(CC12CC3CC(CC(C3)C1)C2)Nc1cccc2c1CCN(CCCN1CCOCC1)C2=O` [Compound 876] belongs ≥ 75%; to `CN1CCN(CCCN2CCc3c(NC(=O)CC45CC6CC(CC(C6)C4)C5)cccc3C2=O)CC1` [Compound 878], ≥ 75%.
With `CN1CCCC1CCN1CCc2c(NC(=O)CC34CC5CC(CC(C5)C3)C4)cccc2C1=O` (centres unmarked) [Compound 879] the figure was ≥ 75%; with `O=C(CC12CC3CC(CC(C3)C1)C2)Nc1cccc2c1CCN(CCCN1CCCC1)C2=O` [Compound 880], ≥ 75%.
Take `NC(=O)[C@@H](CC1CCCCC1)n1ccc2c(NC(=O)CC34CC5CC(CC(C5)C3)C4)cccc2c1=O` [Compound 881]: the inhibition at 0.1 µM is ≥ 75%.
With `NC(=O)[C@H](Cc1c[nH]cn1)n1ccc2c(NC(=O)CC34CC5CC(CC(C5)C3)C4)cccc2c1=O` [Compound 882] the figure was ≥ 75%.
